The target in experiment [1] is Hypoxia-inducible factor 1-alpha (Homo sapiens) (UniProt Q16665). In words: HIF-2a and HIF-1a reporter inhibition panel, dose response, selectivity assay for HIF-2a inhibitor project, cell-based, luminescence (AID 651581). The note with it: HIF-1a.
Experiment [2] has as its target Endothelial PAS domain-containing protein 1 (Homo sapiens) (UniProt Q99814). The experiment is described as above.

Structures are written as SMILES. The source made the active and inactive calls. No rule for the calls is given here. A value given as a limit tells only on which side of the number the result lay.

Chain of Hypoxia-inducible factor 1-alpha (Homo sapiens) (Q16665 whole entry, looked up, the tested form may be a part): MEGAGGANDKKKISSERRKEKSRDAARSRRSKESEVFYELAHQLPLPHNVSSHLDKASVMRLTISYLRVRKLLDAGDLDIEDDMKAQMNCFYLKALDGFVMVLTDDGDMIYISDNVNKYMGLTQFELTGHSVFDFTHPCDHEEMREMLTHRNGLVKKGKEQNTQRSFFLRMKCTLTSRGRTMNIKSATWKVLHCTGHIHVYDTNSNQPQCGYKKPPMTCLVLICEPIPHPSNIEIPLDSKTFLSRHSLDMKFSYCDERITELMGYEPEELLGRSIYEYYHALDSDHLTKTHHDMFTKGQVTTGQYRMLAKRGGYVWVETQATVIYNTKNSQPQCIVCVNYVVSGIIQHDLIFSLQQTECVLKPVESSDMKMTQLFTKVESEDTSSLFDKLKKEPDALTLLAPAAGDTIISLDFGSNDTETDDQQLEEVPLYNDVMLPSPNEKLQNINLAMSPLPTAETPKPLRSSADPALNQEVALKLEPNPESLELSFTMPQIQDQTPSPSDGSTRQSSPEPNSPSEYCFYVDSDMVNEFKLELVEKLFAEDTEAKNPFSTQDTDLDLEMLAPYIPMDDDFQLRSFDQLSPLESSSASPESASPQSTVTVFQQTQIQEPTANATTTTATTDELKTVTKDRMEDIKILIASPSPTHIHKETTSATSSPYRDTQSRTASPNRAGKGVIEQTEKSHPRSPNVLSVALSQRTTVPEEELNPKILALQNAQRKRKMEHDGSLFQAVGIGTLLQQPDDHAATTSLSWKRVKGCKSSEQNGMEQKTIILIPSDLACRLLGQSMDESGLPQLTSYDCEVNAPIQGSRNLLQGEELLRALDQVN

By IC50 is commonly meant the concentration at which inhibition is half-maximal. For the molecule `CC(=O)N(C(C)=O)c1ccc(Oc2ccc(Oc3ccc(N(C(C)=O)C(C)=O)cc3)cc2)cc1`, the IC50 entry in experiment [1] (mean of runs) is “inactive”. The IC50 in experiment [1] (run 1) was 12.2 µM; in experiment [1] (run 2), 20.3 µM; in experiment [2] (HIF-2a PANC, mean of runs), 1.51 µM; in experiment [2] (HIF-2a PANC, run 1), 1.86 µM; in experiment [2] (HIF-2a PANC, run 2), 1.15 µM; in experiment [2] (HIF-2a, run 1), over 99 µM. The IC50 in experiment [2] (HIF-2a, run 2) was 1.58 µM.

On to `COC(=O)Cc1ccc(NC(=O)c2ccc(C(C)(C)C)cc2)cc1`, for which the IC50 was under 10 µM in experiment [1] (mean of runs); under 10 µM in experiment [1] (run 1); under 10 µM in experiment [1] (run 2); < 1 µM (inactive) in experiment [2] (HIF-2a PANC, mean of runs); under 1 µM in experiment [2] (HIF-2a PANC, run 1); under 3 µM in experiment [2] (HIF-2a PANC, run 2). The IC50 in experiment [2] (HIF-2a, mean of runs) is 0.243 µM; in experiment [2] (HIF-2a, run 1), 0.246 µM; in experiment [2] (HIF-2a, run 2), 0.241 µM.

Consider `CCOC(=O)Cn1cc(/C=C/[N+](=O)[O-])c2ccccc21`, for which the IC50 result in experiment [1] (mean of runs) is “inactive”; in experiment [2] (HIF-2a, mean of runs), “inactive”. The IC50 in experiment [1] (run 1) was 17.7 µM; in experiment [1] (run 2) it was 25 µM; in experiment [2] (HIF-2a PANC, mean of runs), > 99 µM (inactive); in experiment [2] (HIF-2a PANC, run 1), over 99 µM; in experiment [2] (HIF-2a PANC, run 2) it was over 99 µM; in experiment [2] (HIF-2a, run 1), 13.5 µM. In experiment [2] (HIF-2a, run 2), this molecule had an IC50 of 13.2 µM.

With `Cc1c(CCC(=O)N2CCC[C@H]2C(=O)O)c(=O)oc2cc3oc4c(c3cc12)CCCC4`, the IC50 entry in experiment [1] (mean of runs) is “inactive”. The IC50 in experiment [1] (run 1) was 0.824 µM; in experiment [1] (run 2), 1.53 µM; in experiment [2] (HIF-2a PANC, mean of runs), 1.12 µM; in experiment [2] (HIF-2a PANC, run 1) it was 1.11 µM; in experiment [2] (HIF-2a PANC, run 2) it was 1.12 µM; in experiment [2] (HIF-2a, mean of runs), 0.512 µM. For the same molecule, the IC50 in experiment [2] (HIF-2a, run 1) was 0.451 µM; in experiment [2] (HIF-2a, run 2) it was 0.574 µM.

Regarding `Cc1nnnn1/C(=C\c1ccccc1)C(=O)OCC(=O)Nc1cccc(S(=O)(=O)N(C)C)c1`, the IC50 result in experiment [1] (mean of runs) was “inactive”. For the same molecule, the IC50 in experiment [1] (run 1) is 13.5 µM; in experiment [1] (run 2), 18.5 µM; in experiment [2] (HIF-2a PANC, run 1), over 99 µM; in experiment [2] (HIF-2a PANC, run 2), 24.2 µM; in experiment [2] (HIF-2a, mean of runs) it was 8.61 µM; in experiment [2] (HIF-2a, run 1) it was 8.32 µM. Besides, in experiment [2] (HIF-2a, run 2), the IC50 amounted to 8.9 µM.

`O=C(Nc1ccccc1)c1nnsc1S(=O)(=O)c1ccc(Cl)cc1`: the IC50 was 28.6 µM in experiment [1] (mean of runs); 27 µM in experiment [1] (run 1); 30.2 µM in experiment [1] (run 2); 44.3 µM in experiment [2] (HIF-2a PANC, run 1); 80.5 µM in experiment [2] (HIF-2a PANC, run 2); 7.71 µM in experiment [2] (HIF-2a, mean of runs). Besides, the IC50 amounted to 7.38 µM in experiment [2] (HIF-2a, run 1) and 8.04 µM in experiment [2] (HIF-2a, run 2). For the same molecule, in experiment [2] (HIF-2a PANC, mean of runs), the IC50 result is “inactive”.

For `C/C(=N\NC(=O)c1n[nH]c2c1CCC2)c1cccs1`, the IC50 result in experiment [1] (mean of runs) was “inactive”; in experiment [2] (HIF-2a PANC, mean of runs), “inactive”. The IC50 in experiment [1] (run 1) is 13.7 µM; in experiment [1] (run 2) it was 11.6 µM; in experiment [2] (HIF-2a PANC, run 1), 27.1 µM; in experiment [2] (HIF-2a PANC, run 2) it was 15.3 µM; in experiment [2] (HIF-2a, mean of runs), 4.55 µM; in experiment [2] (HIF-2a, run 1) it was 4.42 µM. Further, the IC50 in experiment [2] (HIF-2a, run 2) worked out at 4.68 µM.

For `CNC(=O)NC(=O)COC(=O)CCCSc1nc2ccccc2s1`, the IC50 result in experiment [1] (mean of runs) is “inactive”. In addition, the IC50 was 6.15 µM in experiment [1] (run 1); 8.11 µM in experiment [1] (run 2); 10.7 µM in experiment [2] (HIF-2a PANC, mean of runs); 15.8 µM in experiment [2] (HIF-2a PANC, run 1); 5.59 µM in experiment [2] (HIF-2a PANC, run 2); 4.96 µM in experiment [2] (HIF-2a, mean of runs). Also, the IC50 is 5.6 µM in experiment [2] (HIF-2a, run 1) and 4.32 µM in experiment [2] (HIF-2a, run 2).

With `CC(C)(C)c1ccc(-c2noc(CCC(=O)NCc3ccco3)n2)cc1`, the IC50 in experiment [1] (run 1) is under 0.19 µM; in experiment [1] (run 2), 41.9 µM; in experiment [2] (HIF-2a PANC, mean of runs), under 3 µM; in experiment [2] (HIF-2a PANC, run 1) it was under 3 µM; in experiment [2] (HIF-2a PANC, run 2), under 3 µM; in experiment [2] (HIF-2a, mean of runs), under 1 µM. Also, the IC50 was under 1 µM in experiment [2] (HIF-2a, run 1) and under 1 µM in experiment [2] (HIF-2a, run 2).

Regarding `CCc1ccc(S(=O)(=O)ON2C(=O)c3ccccc3C2=O)cc1`, the IC50 is 25.1 µM in experiment [1] (run 1); over 99 µM in experiment [1] (run 2); 53.4 µM in experiment [2] (HIF-2a PANC, run 1); over 99 µM in experiment [2] (HIF-2a PANC, run 2); 10.6 µM in experiment [2] (HIF-2a, run 1); 9.59 µM in experiment [2] (HIF-2a, run 2). For the same molecule, in experiment [2] (HIF-2a, mean of runs), the IC50 result was “inactive”.

For the molecule `COc1ccc(OCc2cccc(C(=O)Nc3cc(C)on3)c2)cc1`, the IC50 in experiment [1] (run 1) was over 99 µM; in experiment [1] (run 2), over 99 µM; in experiment [2] (HIF-2a PANC, run 1), over 99 µM; in experiment [2] (HIF-2a PANC, run 2), under 30 µM; in experiment [2] (HIF-2a, mean of runs) it was < 30 µM (inactive); in experiment [2] (HIF-2a, run 1) it was under 30 µM. Moreover, the IC50 in experiment [2] (HIF-2a, run 2) was under 30 µM.

Consider `N#CCC(=O)N/N=C\c1cccc(OC/C=C/c2ccccc2)c1`, for which the IC50 was over 99 µM in experiment [1] (run 1); under 30 µM in experiment [1] (run 2); over 99 µM in experiment [2] (HIF-2a PANC, run 1); under 30 µM in experiment [2] (HIF-2a PANC, run 2); under 30 µM in experiment [2] (HIF-2a, run 1); 8.63 µM in experiment [2] (HIF-2a, run 2).

With `CC(C)(C)c1ccc(/C=N/Nc2ccc(C(=O)O)cc2)cc1`, in experiment [1] (mean of runs), the IC50 entry is “inactive”. Also, the IC50 in experiment [1] (run 1) was 52.5 µM; in experiment [1] (run 2) it was 40.5 µM; in experiment [2] (HIF-2a PANC, mean of runs), under 0.3 µM; in experiment [2] (HIF-2a PANC, run 1) it was under 1 µM; in experiment [2] (HIF-2a PANC, run 2), under 0.3 µM; in experiment [2] (HIF-2a, run 1), over 99 µM. The molecule further had an IC50 in experiment [2] (HIF-2a, run 2) of under 0.19 µM.

The values above are taken from PubChem BioAssay AID651581 (Sanford-Burnham Center for Chemical Genomics, 2012).
